SMILES strings stand for the structures. Where a name gives a salt, the structure may show the parent alone.

One assay concerns Acinetobacter baumannii ATCC 17978. Put plainly: Antimicrobial susceptibility testing: 90% growth inhibitory concentration (IC90) determination. To be noted: 90% growth inhibitory concentration; Acinetobacter baumannii ATCC17978; Iso-Sensitest broth, OD 600 nm over 16h; read-out: ATCC17978 IC90. Format: cell-based. In a few lines: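 Compounds serially twofold diluted (e.g. 50 to 0.097 μM final) in Iso-Sensitest broth, inoculated at ~5×10^(5) CFU/ml, incubated at 35±2° C. OD600 read every 20 minutes over 16h. IC90 taken as concentration inhibiting 90% of growth during logarithmic phase.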
Usually IC90 stands for the concentration at which the effect reaches the 90% level. Take `CCc1cc(Nc2nccn3c(-c4ccc(OC)c(F)c4F)cnc23)ccc1C(=O)NCC(O)CNC(=O)[C@@H](N)CCCNC(=N)N` (mixture of isomers) [Example 405, rac-N-(3-((R)-2-amino-5-guanidinopentanamido)-2-hydroxypropyl)-4-((3-(2,3-difluoro-4-methoxyphenyl)imidazo[1,2-a]pyrazin-8-yl)amino)-2-ethylbenzamide diformate]: the IC90 stood at 360 nM.

Still in this assay, the particulars now being: Acinetobacter baumannii, ATCC17978, 16 h, 90% growth inhibitory concentration; Acinetobacter baumannii ATCC17978; Iso-Sensitest broth, OD 600 nm over 16h; read-out: ATCC17978 IC90.
For the molecule `COc1ccc(-c2cnc3c(Nc4ccc(C(=O)N[C@H](C)CNC(=N)C(C)C)c(Cl)c4)nccn23)c(F)c1F` [Example 509, (R)-2-chloro-4-((3-(2,3-difluoro-4-methoxyphenyl)imidazo[1,2-a]pyrazin-8-yl)amino)-N-(1-isobutyrimidamidopropan-2-yl)benzamide], the IC90 is 110 nM.

On to `CCc1cc(Nc2nccn3c(-c4ccc(OC(F)F)c(F)c4F)cnc23)ccc1C(=O)NCC1CCNC1` (centres unmarked) [Example 550, 4-[[3-[4-(difluoromethoxy)-2,3-difluorophenyl]imidazo[1,2-a]pyrazin-8-yl]amino]-2-ethyl-N-(pyrrolidin-3-ylmethyl)benzamide; formic acid], for which the IC90 was determined as 150 nM.

For the molecule `CCc1cc(Nc2nccn3c(-c4ccc(Oc5ccc(F)cn5)c(F)c4F)cnc23)ccc1C(=O)NCCNC(=O)CCN` [Example 425, N-[2-(3-aminopropanoylamino)ethyl]-4-[[3-[2,3-difluoro-4-[(5-fluoro-2-pyridyl)oxy]phenyl]imidazo [1,2-a]pyrazin-8-yl]amino]-2-ethyl-benzamide; formic acid], the IC90 was 600 nM.

For the molecule `CCc1cc(Nc2nccn3c(-c4ccc(Oc5ccc(OCCN)cn5)c(F)c4F)cnc23)ccc1C(=O)NC` [Example 512, 4-[[3-[4-[[5-(2-aminoethoxy)-2-pyridyl]oxy]-2,3-difluoro-phenyl]imidazo[1,2-a]pyrazin-8-yl]amino]-2-ethyl-N-methyl-benzamide; formic acid], the IC90 amounted to 510 nM.

Regarding `Cc1cc(Nc2nccn3c(-c4ccc(OC(F)F)cc4)cnc23)ccc1C(=O)N(C)CCCN1CCCCC1` [Example 257, 4-[[3-[4-(difluoromethoxy)phenyl]im-idazo[1,2-a]pyrazin-8-yl]amino]-N,2-dimethyl-N-(3-piperidin-1-ylpropyl)benzamide], the IC90 stood at 3600 nM.

Regarding `CCc1cc(Nc2nccn3c(-c4ccc(OC(F)F)c(F)c4F)cnc23)ccc1C(=O)NCCCO[C@H]1O[C@H](CO)[C@@H](O)[C@H](O)[C@H]1O` [Example 328, 4-[[3-[4-(difluoromethoxy)-2,3-difluorophenyl]imidazo[1,2-a]pyrazin-8-yl]amino]-2-ethyl-N-[3-[(2S,3R,4S,5S,6R)-3,4,5-trihydroxy-6-(hydroxymethyl)oxan-2-yl]oxypropyl]benzamide], the IC90 came to 300 nM.

Turning to `CCc1cc(Nc2nccn3c(-c4ccc(OC)c(F)c4F)cnc23)ccc1C(=O)NCC1(F)CNC1` [Example 526, 4-((3-(2,3-difluoro-4-methoxyphenyl)imidazo[1,2-a]pyrazin-8-yl)amino)-2-ethyl-N-((3-fluoroazetidin-3-yl)methyl)benzamide hydrochloride], the IC90 is 210 nM.

With `CCc1cc(Nc2nccn3c(-c4ccc(Oc5ccncn5)c(F)c4F)cnc23)ccc1C(=O)N[C@@H](C)CNC(=O)[C@H](N)CCNC(=N)N` [Example 458, N-[(1S)-2-[[(2R)-2-amino-4-guanidino-butanoyl]amino]-1-methyl-ethyl]-4-[[3-(2,3-difluoro-4-pyrimidin-4-yloxy-phenyl)imidazo[1,2-a]pyrazin-8-yl]amino]-2-ethyl-benzamide; formic acid], the IC90 worked out at 660 nM.

For the molecule `COc1ccc(-c2cnc3c(Nc4ccc(C(=O)NCC5CNCCN5)c(C)c4)nccn23)cc1F` (centres unmarked) [Example 246, 4-[[3-(3-fluoro-4-methoxyphenyl)imidazo[1,2-a]pyrazin-8-yl]amino]-2-methyl-N-(piperazin-2-ylmethyl)benzamide;hydrochlo-ride], the IC90 was determined as 2200 nM.

As for `Cc1cc(Nc2nccn3c(-c4ccc(OC(F)F)cc4)cnc23)ccc1C(=O)NCC1CCN(C(=N)N)CC1` [Example 24, N-((1-carbamimidoyl-piperidin-4-yl)methyl)-4-((3-(4-(difluoromethoxy)phenyl)imidazo[1,2-a]pyrazin-8-yl)amino)-2-methylbenzamide], the IC90 is 340 nM.

With `COc1ccc(-c2cnc3c(Nc4ccc(C(=O)NCC5CCSCC5)c(Cl)c4)nccn23)c(F)c1F` [Example 42, 2-chloro-4-[[3-(2,3-difluoro-4-methoxy-phenyl)imidazo[1,2-a]pyrazin-8-yl]amino]-N-(tetrahydrothiopyran-4-ylmethyl)benzamide], the IC90 stood at 890 nM.

Take `COc1ccc(-c2cnc3c(Nc4ccc(C(=O)NCC5CCN(C)CC5)c(C)c4)nccn23)c(F)c1F` [Example 62, 4-((3-(2,3-difluoro-4-methoxyphenyl)imidazo [1,2-a]pyrazin-8-yl)amino)-2-methyl-N-((1-methylpiperidin-4-yl)methyl)benzamide]: the IC90 was 250 nM.

`Cc1cc(Nc2nccn3c(-c4ccc(OC(F)F)cc4)cnc23)ccc1C(=O)N[C@@H](C)CN` [Example 269, N-[(2S)-1-aminopropan-2-yl]-4-[[3-[4-(difluoromethoxy)phenyl]im-idazo[1,2-a]pyrazin-8-yl]amino]-2-methylbenzamide;hydrochlo-ride]: the IC90 is 7100 nM.

Consider `CCc1cc(Nc2nccn3c(-c4ccc(OC)c(F)c4F)cnc23)ccc1C(=O)NCC(=O)NCCN1CCC1` [Example 446, N-[2-[2-(azetidin-1-yl)ethylamino]-2-oxo-ethyl]-4-[[3-(2,3-difluoro-4-methoxy-phenyl)imidazo[1,2-a]pyrazin-8-yl]amino]-2-ethyl-benzamide; formic acid], for which the IC90 amounted to 300 nM.

Take `Cc1cc(Nc2nccn3c(-c4ccc(OC(F)F)cc4)cnc23)ccc1C(=O)NCCN1CCOCC1=O` [Example 247, 4-[[3-[4-(difluoromethoxy)phenyl]im-dazo[1,2-a]pyrazin-8-yl]amino]-2-methyl-N-[2-(3-oxomorpholin-4-yl)ethyl]benzamide]: the IC90 was 2400 nM.

As to `COc1ccc(-c2cnc3c(Nc4ccc(C(=O)N(C)CCCC(=O)O)c(C)c4)nccn23)cc1F` [Example 174, 4-[[4-[[3-(3-fluoro-4-methoxyphenyl)imidazo[1,2-a]pyrazin-8-yl]amino]-2-methylbenzoyl]-methylamino]butanoic acid], the IC90 came to 8900 nM.

Regarding `C#CCCCNC(=O)c1ccc(Nc2nccn3c(-c4ccc(OC)c(F)c4F)cnc23)cc1CC` [Example 481, 4-((3-(2,3-difluoro-4-methoxyphenyl)imidazo[1,2-a]pyrazin-8-yl)amino)-2-ethyl-N-(pent-4-yn-1-yl)benzamide], the IC90 was found to be 260 nM.

`CCc1cc(Nc2nccn3c(-c4ccc(OC)c(F)c4F)cnc23)ccc1C(=O)NCC[C@@H](C)NC(=O)[C@@H](N)CCCNC(=N)N` [Example 340, N-[(3R)-3-[[(2S)-2-amino-5-carbamimidamidopentanoyl]amino]butyl]-4-[[3-(2,3-difluoro-4-methoxyphenyl)imidazo[1,2-a]pyrazin-8-yl]amino]-2-ethylbenzamide; hydrochloride]: the IC90 amounted to 590 nM.

As to `COc1ccc(-c2cnc3c(Nc4ccc(C(=O)N(C)CC(=O)N(C)C)c(C)c4)nccn23)cc1F` [Example 7, N-[2-(dimethylamino)-2-oxo-ethyl]-4-[[3-(3-fluoro-4-methoxy-phenyl)imidazo[1,2-a]pyrazin-8-yl]amino]-N,2-dimethyl-benzamide], the IC90 was 1900 nM.

Take `CCc1cc(Nc2nccn3c(-c4ccc(OCC#N)c(F)c4F)cnc23)ccc1C(=O)NCCNC(=O)CC(O)CN` (centres unmarked) [Example 142, N-[2-[(4-amino-3-hydroxy-butanoyl)amino]ethyl]-4-[[3-[4-(cyanomethoxy)-2,3-difluoro-phenyl]imidazo[1,2-a]pyrazin-8-yl]amino]-2-ethyl-benzamide formate]: the IC90 was 130 nM.

Turning to `CCc1cc(Nc2nccn3c(-c4ccc(OC)c(F)c4F)cnc23)ccc1C(=O)NCc1cnn(C)c1` [Example 555, 4-[[3-(2,3-difluoro-4-methoxy-phenyl)imidazo[1,2-a]pyrazin-8-yl]amino]-2-ethyl-N-[(1-methylpyrazol-4-yl)methyl]benzamide], the IC90 was determined as 150 nM.

Consider `CCc1cc(Nc2nccn3c(-c4ccc(OC)c(F)c4F)cnc23)ccc1C(=O)NCCCC(=O)N1CCN[C@H](CO)C1` [Example 161, 4-[[3-(2,3-difluoro-4-methoxy-phenyl)imidazo[1,2-a]pyrazin-8-yl]amino]-2-ethyl-N-[4-[(3S)-3-(hydroxymethyl)piperazin-1-yl]-4-oxo-butyl]benzamide], for which the 90% effect concentration (IC90) worked out at 80 nM.

In the case of `COc1ccc(-c2cnc3c(Nc4ccc(C(=O)NCCCN5CCNC(=O)C5)c(C)c4)nccn23)c(F)c1F` [Example 65, 4-((3-(2,3-difluoro-4-methoxyphenyl)imidazo [1,2-a]pyrazin-8-yl)amino)-2-methyl-N-(3-(3-oxopiperazin-1-yl)propyl)benzamide], the IC90 was 120 nM.

Take `Cc1cc(Nc2nccn3c(-c4ccc(OC(F)F)cc4)cnc23)ccc1C(=O)NCCNC(=O)N1CCNCC1` [Example 345, N-[2-[[4-[[3-[4-(difluoromethoxy)phenyl]im-idazo[1,2-a]pyrazin-8-yl]amino]-2-methylbenzoyl]amino]ethyl] piperazine-1-carboxamide]: the IC90 was found to be 900 nM.

As to `COc1ccc(-c2cnc3c(Nc4ccc(C(=O)N(C)CC(=O)N5CCC(CN(C)C)C5)c(C)c4)nccn23)cc1F` (centres unmarked) [Example 9, N-[2-[3-[(dimethylamino)methyl]pyrrolidin-1-yl]-2-oxo-ethyl]-4-[[3-(3-fluoro-4-methoxy-phenyl)imidazo[1,2-a]pyrazin-8-yl]amino]-N,2-dimethyl-benzamide], the IC90 came to 840 nM.

Source of the values: patent publication US20230012368A1 (Hoffmann-La Roche Inc., priority 2018, published 2023).
